Reference: patent US10189830B2, “Alkyl-heteroaryl substituted quinone derivatives for treatment of oxidative stress disorders” (BioElectron Technology Corporation, priority 2013, dated 2019)
Read-outs that look alike come from different tables or passages of the source.

Tested on: Human dermal fibroblasts from Friedreich's Ataxia patients
Test: Rescue of BSO-stressed FRDA fibroblasts (Calcein AM viability screen)
Format: cell-based
Details: FRDA fibroblasts GM04078, 1 mM BSO, 48 h
Method: An initial screen was performed to identify compounds effective for the amelioration of redox disorders. Test samples, 4 reference compounds (idebenone, decylubiquinone, Trolox and alpha-tocopherol), and solvent controls were tested for their ability to rescue FRDA fibroblasts stressed by addition of L-buthionine-(S,R)-sulfoximine (BSO), as described in Jauslin et al., Hum. Mol. Genet. 11(24):3055 (2002), Jauslin et al., FASEB J. 17:1972-4 (2003), and International Patent Application WO 2004/003565. […] This specific BSO-mediated cell death can be prevented by administration of antioxidants or molecules involved in the antioxidant pathway, such as alpha-tocopherol, selenium, or small molecule glutathione peroxidase mimetics. However, antioxidants differ in their potency, i.e. the concentration at which they are able to rescue BSO-stressed FRDA fibroblasts.
MEM (a medium enriched in amino acids and vitamins, catalog no. 1-31F24-I) and Medium 199 (M199, catalog no. 1-21F22-I) with Earle's Balanced Salts, without phenol red, were purchased from Bioconcept. Fetal Calf Serum was obtained from PAA Laboratories. Basic fibroblast growth factor and epidermal growth factor were purchased from PeproTech. Penicillin-streptomycin-glutamine mix, L-buthionine (S,R)-sulfoximine, (+)-alpha-tocopherol, decylubiquinone, and insulin from bovine pancreas were purchased from Sigma. Trolox (6-Hydroxy-2,5,7,8-tetramethylchromane-2-carboxylic acid) was obtained from Fluka. Idebenone was obtained from Chemo Iberica. Calcein AM was purchased from Anaspec. Cell culture medium was made by combining 125 ml M199 EBS, 50 ml Fetal Calf Serum, 100 U/ml penicillin, 100 microgram/ml streptomycin, 2 mM glutamine, 10 microgram/ml insulin, 10 ng/ml EGF, and 10 ng/ml bFGF; MEM EBS was added to make the volume up to 500 ml. A 10 mM BSO solution was prepared by dissolving 444 mg BSO in 200 ml of medium (Invitrogen, Carlsbad, Ca.) with subsequent filter-sterilization. During the course of the experiments, this solution was stored at +4° C. The cells were obtained from the Coriell Cell Repositories (Camden, N.J.; repository number GM04078) and grown in 10 cm tissue culture plates. Every third day, they were split at a 1:3 ratio.
The test samples were supplied in 1.5 ml glass vials. The compounds were diluted with DMSO, ethanol or PBS to result in a 5 mM stock solution. Once dissolved, they were stored at −20° C. Reference antioxidants (idebenone, decylubiquinone, alpha-tocopherol and Trolox) were dissolved in DMSO.
Test samples were screened according to the following protocol:
A culture with FRDA fibroblasts was started from a 1 ml vial with approximately 500,000 cells stored in liquid nitrogen. Cells were propagated in 10 cm cell culture dishes by splitting every third day in a ratio of 1:3 until nine plates were available. Once confluent, fibroblasts were harvested. For 54 micro titer plates (96 well-MTP) a total of 14.3 million cells (passage eight) were re-suspended in 480 ml medium, corresponding to 100 microliters medium with 3,000 cells/well. The remaining cells were distributed in 10 cm cell culture plates (500,000 cells/plate) for propagation. The plates were incubated overnight at 37° C. in a atmosphere with 95% humidity and 5% CO2 to allow attachment of the cells to the culture plate.
10% DMSO (242.5 microliters) was added to a well of the microtiter plate. The test compounds were unfrozen, and 7.5 microliters of a 5 mM stock solution was dissolved in the well containing 242.5 microliters of 10% DMSO, resulting in a 150 micromolar master solution. Serial dilutions from the master solution were made. The period between the single dilution steps was kept as short as possible (generally less than 30 seconds). At least 4 hours after attachment into MTP, cells were then treated with the various compound dilutions.
Plates were kept overnight in the cell culture incubator. […]

[1] = Homo sapiens, average, compounds of the invention, read-out: Ec50 Average
[2] = Homo sapiens, average of three values, control compounds, read-out: EC50 Average
[3] = Homo sapiens, first of three experiments, read-out: EC50 Value 1
[4] = Homo sapiens, second of three experiments, read-out: EC50 Value 2
[5] = Homo sapiens, third of three experiments, read-out: EC50 Value 3

Row | SMILES | EC50 [1] | other results
1 | CC1=C(C)C(=O)C(CCCc2nc3ccc(Cl)cc3[nH]2)=C(C)C1=O | 6 nM | 
2 | CC1=C(C)C(=O)C(CCCc2nc3ccccc3[nH]2)=C(C)C1=O | 14 nM | 
3 | CC1=C(C)C(=O)C(CCCc2nc3ccc(F)cc3[nH]2)=C(C)C1=O | 29 nM | 
4 | CC1=C(C)C(=O)C(CCn2cnc3ccccc32)=C(C)C1=O | 28 nM | 
5 | CC1=C(C)C(=O)C(CCCc2nc3ccccc3n2C)=C(C)C1=O | 25 nM | 
6 | CC1=C(C)C(=O)C(CCCc2nc3ccccc3s2)=C(C)C1=O | 6 nM | 
7 | CC1=C(C)C(=O)C(CCCc2nc3ccccc3o2)=C(C)C1=O | 20 nM | 
8 | CC1=C(C)C(=O)C(CCn2c(C)nc3ccccc32)=C(C)C1=O | 49 nM | 
9 | CC1=C(C)C(=O)C(CCCn2cnc3ccccc32)=C(C)C1=O | 21 nM | 
10 | CC1=C(C)C(=O)C(CCCn2c(C)nc3ccccc32)=C(C)C1=O | 26 nM | 
11 | CC1=C(C)C(=O)C(CCCn2cncn2)=C(C)C1=O | 426 nM | 
12 | CC1=C(C)C(=O)C(CCCc2nc3cc(C(F)(F)F)ccc3[nH]2)=C(C)C1=O | 8 nM | 
13 | CC1=C(C)C(=O)C(CCCc2nc3cccc(C)c3[nH]2)=C(C)C1=O | 7 nM | 
14 | CC1=C(C)C(=O)C(CCCc2nc3ccc(F)cc3o2)=C(C)C1=O | 10 nM | 
15 | CC1=C(C)C(=O)C(CCc2nc3ccccc3s2)=C(C)C1=O | 6 nM | 
16 | CC1=C(C)C(=O)C(CCCc2nc3ccc(C)cc3o2)=C(C)C1=O | 7 nM | 
17 | CC1=C(C)C(=O)C(CCCc2nc3cc(F)ccc3[nH]2)=C(C)C1=O | 9 nM | 

Row | SMILES | EC50 [1] | other results
18 | CC1=C(C)C(=O)C(CCCc2nc3cccc(F)c3[nH]2)=C(C)C1=O | 18 nM | 
19 | CC1=C(C)C(=O)C(CCCc2nc3cc(Cl)ccc3s2)=C(C)C1=O | 28 nM | 
20 | CC1=C(C)C(=O)C(CCc2nc3ccccc3o2)=C(C)C1=O | 18 nM | 
21 | CC1=C(C)C(=O)C(CCc2nc3ccccc3[nH]2)=C(C)C1=O | 20 nM | 
22 | CC1=C(C)C(=O)C(CCCc2nc3cc(C)ccc3[nH]2)=C(C)C1=O | 21 nM | 
23 | CC1=C(C)C(=O)C(CCc2ncc(C)s2)=C(C)C1=O | 27 nM | 
24 | CC1=C(C)C(=O)C(CCCc2nc3cc(C(F)(F)F)ccc3o2)=C(C)C1=O | 27 nM | 
25 | CC1=C(C)C(=O)C(CCCc2nc3cccnc3[nH]2)=C(C)C1=O | 113 nM | 
26 | CC1=C(C)C(=O)C(CCc2ncc[nH]2)=C(C)C1=O | 225 nM | 
27 | CC1=C(C)C(=O)C(CCCc2nc3ccc(C(N)=O)cc3[nH]2)=C(C)C1=O | 80 nM | 
28 | CC1=C(C)C(=O)C(CCCc2nc3ccc(C(=O)N4CCN(C)CC4)cc3[nH]2)=C(C)C1=O | 92 nM | 
29 | CC1=C(C)C(=O)C(CCCc2nc3ccc(C(=O)NCCCO)cc3[nH]2)=C(C)C1=O | > 200 nM | 
30 | COC1=C(OC)C(=O)C(CCCCCCCCCCO)=C(C)C1=O [Idebenone, reference compound] |  | EC50 [2]: 1200 nM; EC50 [3]: 1500 nM; EC50 [4]: 1000 nM; EC50 [5]: 1000 nM
31 | Cc1c(C)c2c(c(C)c1O)CCC(C)(C(=O)O)O2 (stereo not drawn) [Trolox, 6-Hydroxy-2,5,7,8-tetramethylchromane-2-carboxylic acid, reference compound] |  | EC50 [2]: 8700 nM; EC50 [3]: 9000 nM; EC50 [4]: 9000 nM; EC50 [5]: 8000 nM
32 | Cc1c(C)c2c(c(C)c1O)CC[C@@](C)(CCC[C@H](C)CCC[C@H](C)CCCC(C)C)O2 [alpha-tocopherol, (+)-alpha-tocopherol, reference compound] |  | EC50 (average of three values, control compounds, read-out: EC50 Average): 300 nM; EC50 (first of three experiments, read-out: EC50 Value 1): 400 nM; EC50 (second of three experiments, read-out: EC50 Value 2): 150 nM; EC50 (third of three experiments, read-out: EC50 Value 3): 350 nM
33 | CCCCCCCCCCC1=C(C)C(=O)C(OC)=C(OC)C1=O [decylubiquinone, reference compound] |  | EC50 [2]: 38 nM; EC50 [3]: 50 nM; EC50 [4]: 35 nM; EC50 [5]: 30 nM
